Source: patent EP4755888A1 (ILAb Co., Ltd., priority 2023, dated 2025)
pIC50: −log10 of the molar value.

Target: PD-1/PD-L1 (Homo sapiens, UniProt Q9NZQ7)
Assay: TR-FRET PD-1/PD-L1 binding inhibition at the molecular level (free proteins)
Conditions: Tag1-PD-L1 and Tag2-PD-1 proteins, twelve concentrations from 200 nM, 2 hours at room temperature, read-out: FRET assay (IC50)
Procedure, shortened: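 HTRF read-out at 665/620 nm after 2 h at room temperature. Detection used anti-Tag1 Eu cryptate plus anti-Tag2 XL665 antibodies. Tagged PD-L1 and PD-1 proteins were pre-mixed with compound across twelve […] 1:2 dilutions starting at 200 nM.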

Chain of PD-1/PD-L1 (Q9NZQ7 19-238 limits assumed): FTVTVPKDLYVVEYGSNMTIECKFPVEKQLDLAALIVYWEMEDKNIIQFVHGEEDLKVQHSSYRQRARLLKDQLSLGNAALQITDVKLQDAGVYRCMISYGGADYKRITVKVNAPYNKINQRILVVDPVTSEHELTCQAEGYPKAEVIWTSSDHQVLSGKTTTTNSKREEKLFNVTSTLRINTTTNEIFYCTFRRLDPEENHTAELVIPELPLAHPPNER

`O=C(Nc1cccc(-c2cccc(Nc3nc(C(F)(F)F)nc4cccnc34)c2Cl)c1Cl)c1cc2n(n1)CCC[C@@H]2N1CCC(O)CC1` [Compound 303, (S)-N-(2,2'-dichloro-3'-((2-(trifluoromethyl)pyrido[3,2-d]pyrimidin-4-yl)amino)-[1,1'-biphenyl]-3-yl)-4-(4-hydroxypiperidin-1-yl)-4,5,6,7-tetrahydropyrazolo[1,5-a]pyridine-2-carboxamide] and `O=C(Nc1cccc(-c2cccc(Nc3nc(C(F)(F)F)nc4cccnc34)c2Cl)c1Cl)c1cc2n(n1)CCC[C@H]2N1CCC(O)CC1` [Compound 304, (R)-N-(2,2'-dichloro-3'-((2-(trifluoromethyl)pyrido[3,2-d]pyrimidin-4-yl)amino)-[1,1'-biphenyl]-3-yl)-4-(4-hydroxypiperidin-1-yl)-4,5,6,7-tetrahydropyrazolo[1,5-a]pyridine-2-carboxamide] fall in the same range of pIC50: 7.00 to 8.00 for the first, 7.00 to 8.00 for the second.

`O=C(Nc1cccc(-c2cccc(Nc3nc(C(F)F)nc4cccnc34)c2Cl)c1Cl)c1cc2n(n1)CCC[C@@H]2N1CCC(O)CC1` [Compound 305, (S)-N-(2,2'-dichloro-3'-((2-(difluoromethyl)pyrido[3,2-d]pyrimidin-4-yl)amino)-[1,1'-biphenyl]-3-yl)-4-(4-hydroxypiperidin-1-yl)-4,5,6,7-tetrahydropyrazolo[1,5-a]pyridine-2-carboxamide] and `O=C(Nc1cccc(-c2cccc(Nc3nccc4cc(CN5CC[C@@H](O)C5)cnc34)c2Cl)c1Cl)c1cc2n(n1)CCCN2CCO` [Compound 322, (R)-N-(2,2'-dichloro-3'-((3-((3-hydroxypyrrolidin-1-yl)methyl)-1,7-naphthyridin-8-yl)amino)-[1,1'-biphenyl]-3-yl)-4-(2-hydroxyethyl)-4,5,6,7-tetrahydropyrazolo[1,5-a]pyrimidine-2-carboxamide] fall in the same range of pIC50: 7.00 to 8.00 for the first, 7.00 to 8.00 for the second.

`Cn1c(C(=O)Nc2cccc(-c3cccc(NC(=O)c4cc5n(n4)CCC[C@@H]5N4CC[C@@H](C(=O)O)C4)c3Cl)c2Cl)nc2c1CCN(CCC13CCC(C(=O)O)(CC1)C3)C2` [Compound 307, (R)-1-((S)-2-((3'-(5-(2-(4-carboxybicyclo[2.2.1]heptan-1-yl)ethyl)-1-methyl-4,5,6,7-tetrahydro-1H-imidazo[4,5-c]pyridine-2-carboxamido)-2,2'-dichloro-[1,1'-biphenyl]-3-yl)carbamoyl)-4,5,6,7-tetrahydropyrazolo[1,5-a]pyridin-4-yl)pyrrolidine-3-carboxylic acid] and `Cn1c(C(=O)Nc2cccc(-c3cccc(NC(=O)c4cc5n(n4)CCC[C@H]5N4CC[C@@H](C(=O)O)C4)c3Cl)c2Cl)nc2c1CCN(CCC13CCC(C(=O)O)(CC1)C3)C2` [Compound 308, (R)-1-((R)-2-((3'-(5-(2-(4-carboxybicyclo[2.2.1]heptan-1-yl)ethyl)-1-methyl-4,5,6,7-tetrahydro-1H-imidazo[4,5-c]pyridine-2-carboxamido)-2,2'-dichloro-[1,1'-biphenyl]-3-yl)carbamoyl)-4,5,6,7-tetrahydropyrazolo[1,5-a]pyridin-4-yl)pyrrolidine-3-carboxylic acid] cannot be ordered by pIC50: > 8.00 for the first, > 8.00 for the second.

First: Cc1c(NC(=O)c2ccc(CN3CC[C@@H](O)C3)cn2)cccc1-c1cccc(NC(=O)c2cc3n(n2)CCC[C@@H]3N2CCCC[C@@H]2CO)c1C [Compound 309, (S)-4-((R)-2-(hydroxymethyl)piperidin-1-yl)-N-(3'-(5-(((R)-3-hydroxypyrrolidin-1-yl)methyl)picolinamido)-2,2'-dimethyl-[1,1'-biphenyl]-3-yl)-4,5,6,7-tetrahydropyrazolo[1,5-a]pyridine-2-carboxamide]
Second: Cc1c(NC(=O)c2ccc(CN3CC[C@@H](O)C3)cn2)cccc1-c1cccc(NC(=O)c2cc3n(n2)CCC[C@H]3N2CCCC[C@@H]2CO)c1C [Compound 309-1, (R)-4-((R)-2-(hydroxymethyl)piperidin-1-yl)-N-(3'-(5-(((R)-3-hydroxypyrrolidin-1-yl)methyl)picolinamido)-2,2'-dimethyl-[1,1'-biphenyl]-3-yl)-4,5,6,7-tetrahydropyrazolo[1,5-a]pyridine-2-carboxamide]
The pIC50 of the first is higher: > 8.00 for the first, 7.00 to 8.00 for the second.

`Cc1c(NC(=O)c2ccc(CN3CC[C@@H](O)C3)cn2)cccc1-c1cccc(NC(=O)c2cc3n(n2)CCC[C@@H]3N2CCC[C@@H]2CO)c1C` [Compound 310, (S)-4-((R)-2-(hydroxymethyl)pyrrolidin-1-yl)-N-(3'-(5-(((R)-3-hydroxypyrrolidin-1-yl)methyl)picolinamido)-2,2'-dimethyl-[1,1'-biphenyl]-3-yl)-4,5,6,7-tetrahydropyrazolo[1,5-a]pyridine-2-carboxamide] and `Cc1c(NC(=O)c2ccc(CN3CC[C@@H](O)C3)cn2)cccc1-c1cccc(NC(=O)c2cc3n(n2)CCC[C@H]3N2CCC[C@@H]2CO)c1C` [Compound 310-1] cannot be ordered by pIC50: > 8.00 for the first, > 8.00 for the second.

`CN(C)[C@H]1CCCn2nc(C(=O)Nc3cccc(-c4cccc(NC(=O)c5cc6n(n5)CCC[C@@H]6N(C)C)c4Cl)c3Cl)cc21` [Compound 311, (4S,4'S)-N,N'-(2,2'-dichloro-[1,1'-biphenyl]-3,3'-diyl)bis(4-(dimethylamino)-4,5,6,7-tetrahydropyrazolo[1,5-a]pyridine-2-carboxamide)] and `CN(C)[C@H]1CCCn2nc(C(=O)Nc3cccc(-c4cccc(NC(=O)c5cc6n(n5)CCC[C@@H]6NCCO)c4Cl)c3Cl)cc21` [Compound 313, (S)-N-(2,2'-dichloro-3'-((S)-4-((2-hydroxyethyl)amino)-4,5,6,7-tetrahydropyrazolo[1,5-a]pyridine-2-carboxamido)-[1,1'-biphenyl]-3-yl)-4-(dimethylamino)-4,5,6,7-tetrahydropyrazolo[1,5-a]pyridine-2-carboxamide] cannot be ordered by pIC50: > 8.00 for the first, > 8.00 for the second.

`CN[C@H]1CCCn2nc(C(=O)Nc3cccc(-c4cccc(NC(=O)c5cc6n(n5)CCC[C@@H]6NC)c4C)c3C)cc21` [Compound 312, (4S,4'S)-N,N'-(2,2'-dimethyl-[1,1'-biphenyl]-3,3'-diyl)bis(4-(methylamino)-4,5,6,7-tetrahydropyrazolo[1,5-a]pyridine-2-carboxamide)] and `O=C(O)CN[C@H]1CCCn2nc(C(=O)Nc3cccc(-c4cccc(NC(=O)c5cc6n(n5)CCC[C@@H]6NCC(=O)O)c4Cl)c3Cl)cc21` [Compound 317, 2,2'-(((4S,4'S)-2,2'-(((2,2'-dichloro-[1,1'-biphenyl]-3,3'-diyl)bis(azanediyl))bis(carbonyl))bis(4,5,6,7-tetrahydropyrazolo[1,5-a]pyridine-4,2-diyl))bis(azanediyl))diacetic acid] cannot be ordered by pIC50: > 8.00 for the first, > 8.00 for the second.

`CN(C)[C@H]1CCCn2nc(C(=O)Nc3cccc(-c4cccc(NC(=O)c5cc6n(n5)CCC[C@@H]6NCC(=O)O)c4Cl)c3Cl)cc21` [Compound 314, 2-(((S)-2-((2,2'-dichloro-3'-((S)-4-(dimethylamino)-4,5,6,7-tetrahydropyrazolo[1,5-a]pyridine-2-carboxamido)-[1,1'-biphenyl]-3-yl)carbamoyl)-4,5,6,7-tetrahydropyrazolo[1,5-a]pyridin-4-yl)amino)acetic acid] and `O=C(O)CN[C@H]1CCCn2nc(C(=O)Nc3cccc(-c4cccc(NC(=O)c5cc6n(n5)CCC[C@@H]6NCCO)c4Cl)c3Cl)cc21` [Compound 315, 2-(((S)-2-((2,2'-dichloro-3'-((S)-4-((2-hydroxyethyl)amino)-4,5,6,7-tetrahydropyrazolo[1,5-a]pyridine-2-carboxamido)-[1,1'-biphenyl]-3-yl)carbamoyl)-4,5,6,7-tetrahydropyrazolo[1,5-a]pyridin-4-yl)amino)acetic acid] cannot be ordered by pIC50: > 8.00 for the first, > 8.00 for the second.

First: O=C(Nc1cccc(-c2cccc(NC(=O)c3cc4n(n3)CCC[C@@H]4NCCO)c2Cl)c1Cl)c1cc2n(n1)CCC[C@@H]2NCCO [Compound 316, (4S,4'S)-N,N'-(2,2'-dichloro-[1,1'-biphenyl]-3,3'-diyl)bis(4-((2-hydroxyethyl)amino)-4,5,6,7-tetrahydropyrazolo[1,5-a]pyridine-2-carboxamide)]
Second: O=C(Nc1cccc(-c2cccc(Nc3nccc4cc(CN5CC[C@@H](O)C5)cnc34)c2Cl)c1Cl)c1cc2n(n1)CCN(CCO)C2 [Compound 323, (R)-N-(2,2'-dichloro-3'-((3-((3-hydroxypyrrolidin-1-yl)methyl)-1,7-naphthyridin-8-yl)amino)-[1,1-biphenyl]-3-yl)-5-(2-hydroxyethyl)-4,5,6,7-tetrahydropyrazolo[1,5-a]pyrazine-2-carboxamide]
The pIC50 of the first is higher: > 8.00 for the first, 7.00 to 8.00 for the second.

`O=C(O)CN1CCn2nc(C(=O)Nc3cccc(-c4cccc(Nc5nccc6cc(CN7CC[C@@H](O)C7)cnc56)c4Cl)c3Cl)cc2C1` [Compound 324, (R)-2-(2-((2,2'-dichloro-3'-((3-((3-hydroxypyrrolidin-1-yl)methyl)-1,7-naphthyridin-8-yl)amino)-[1,1'-biphenyl]-3-yl)carbamoyl)-6,7-dihydropyrazolo[1,5-a]pyrazin-5(4H)-yl)acetic acid] and `Cc1c(NC(=O)c2ccc(CN3CC[C@@H](O)C3)cn2)cccc1-c1cccc(NC(=O)c2cc3n(n2)CCN(CC(=O)O)C3)c1C` [Compound 326, (R)-2-(2-((3'-(5-((3-hydroxypyrrolidin-1-yl)methyl)picolinamido)-2,2'-dimethyl-[1,1'-biphenyl]-3-yl)carbamoyl)-6,7-dihydropyrazolo[1,5-a]pyrazin-5(4H)-yl)acetic acid] cannot be ordered by pIC50: > 8.00 for the first, > 8.00 for the second.

For `Cc1c(NC(=O)c2ccc(CN3CC[C@@H](O)C3)cn2)cccc1-c1cccc(NC(=O)c2cc3n(n2)CCN(CCO)C3)c1C` [Compound 325, (R)-5-(2-hydroxyethyl)-N-(3'-(5-((3-hydroxypyrrolidin-1-yl)methyl)picolinamido)-2,2'-dimethyl-[1,1'-biphenyl]-3-yl)-4,5,6,7-tetrahydropyrazolo[1,5-a]pyrazine-2-carboxamide], the pIC50 was > 8.00.
